Assay results: patent US20250064904A1 (priority 2019, published 2025)

Tests used:
[1] = test system: salivary glands (submandibular, parotid); design: species or system human; conditions: in vivo
[2] = test system: salivary glands; conditions: in vivo; cited from earlier work

botulinum toxin type A
uptake of 18F-PSMA in the treated glands [1]: significantly reduced | uptake of 68Ga-PSMA in the glands treated with botulinum toxin [1]: significantly reduced | uptake of 177Lu-PSMA in the treated glands [1]: significantly reduced | uptake of 225Ac-PSMA-617 in the treated glands [1]: significantly reduced | onset of action [2]: around six
